Drawing on PubChem BioAssay (NCI), this text covers TGI and GI50 for 27 compounds.

Some test systems named below: UACC-62 melanoma; SW-620 colon; HCT-116 colon; KM12 colon; MOLT-4 leukemia; OVCAR-3 ovarian; SN12C renal.
What all share (assay): growth of human tumour cells (NCI), 48 h

SMILES strings stand for the structures. “And” between values parts separate entries of the source, which are not always exact repeats. Equal entries are not always repeated.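 In this assay, cells in 96-well plates receive the compound at five concentrations for 48 hours. Endpoints are linearly interpolated between the surrounding concentrations. GI50 marks 50% less growth. Definition used: TGI = concentration required for complete inhibition of growth.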 Bounds are passed on as bounds.

With `COc1cc(CCc2ccc(OCCN(C)C)cc2)cc(OC)c1OC`, the TGI with UACC-62 melanoma, in the experiment with SW-620 colon, with HCT-116 colon, in the experiment on KM12 colon, with MOLT-4 leukemia and with OVCAR-3 ovarian was greater than 100 µM throughout. The same compound came in with a TGI in the experiment on SN12C renal greater than 100 µM.

Take `Cn1c(=O)nc2n(-c3ccc(Cl)cc3)c3ccc(Cl)cc3nc-2c1=O`: the TGI in the experiment with UACC-62 melanoma came to 3.09 µM; in the experiment with SW-620 colon, 19.2 µM; with HCT-116 colon, 20.9 µM; in the experiment with KM12 colon it was 32 µM; in the experiment on MOLT-4 leukemia it was 65.7 µM; in the experiment with OVCAR-3 ovarian, 8.14 µM. In addition, the TGI with SN12C renal came to 27.6 µM.

As for `Cc1cnc2c(C)ccc([N+](=O)[O-])c2c1NCCCN(C)C`, the TGI with SW-620 colon, in the experiment on HCT-116 colon, with KM12 colon, in the experiment on MOLT-4 leukemia, in the experiment on OVCAR-3 ovarian and in the experiment on SN12C renal was greater than 100 µM throughout.

Take `Nn1c(-c2ccccc2)nc2ccc(Br)cc2c1=O`: the TGI with UACC-62 melanoma is greater than 100 µM; in the experiment on SW-620 colon, greater than 100 µM; with HCT-116 colon, greater than 100 µM; in the experiment with KM12 colon, greater than 100 µM; in the experiment on MOLT-4 leukemia it was 50.5 µM; in the experiment with OVCAR-3 ovarian it was 81.9 µM. The compound also had a TGI with SN12C renal greater than 100 µM.

Regarding `O=C1C(=O)N(C(=O)c2ccc(Cl)c(Cl)c2)c2ccccc21`, the TGI with UACC-62 melanoma, in the experiment with SW-620 colon, in the experiment with KM12 colon, in the experiment on MOLT-4 leukemia and in the experiment on OVCAR-3 ovarian was greater than 100 µM in each case.

In the case of `CC1=C(C)C(=O)c2c(cc3ccc4ccccc4n23)C1=O`, the TGI in the experiment on UACC-62 melanoma, in the experiment on SW-620 colon, with KM12 colon, in the experiment on MOLT-4 leukemia, with OVCAR-3 ovarian and in the experiment on SN12C renal was greater than 100 µM throughout.

`O=C(c1ccccc1)C(c1ccccc1)C1(O)C(=O)Nc2c(Cl)cc(Cl)cc21` (configuration not stated): the TGI is 34.3 µM in the experiment on SW-620 colon; 82.8 µM with KM12 colon; 61.9 µM with MOLT-4 leukemia; greater than 100 µM with OVCAR-3 ovarian; greater than 100 µM in the experiment on SN12C renal.

`O=C(c1ccccc1)C(C(=O)c1ccccc1)C1(O)C(=O)c2ccccc2C1=O`: the TGI in the experiment on UACC-62 melanoma, with SW-620 colon, with KM12 colon, in the experiment with MOLT-4 leukemia, with OVCAR-3 ovarian and in the experiment on SN12C renal was greater than 100 µM each time.

`Cc1nc2c(nc1C)C(=O)c1cc(O)ccc1C2=O`: the TGI is 53.5 µM in the experiment on UACC-62 melanoma; greater than 100 µM in the experiment on SW-620 colon; greater than 100 µM in the experiment with HCT-116 colon; greater than 100 µM in the experiment on KM12 colon; greater than 100 µM with MOLT-4 leukemia; greater than 100 µM in the experiment on OVCAR-3 ovarian. Also, in the experiment with SN12C renal, the TGI was greater than 100 µM.

For `O=C1CC(O)C=C1Nc1ccc(Cl)cc1` (configuration not stated), the TGI in the experiment on UACC-62 melanoma is 5.14 µM; in the experiment with SW-620 colon, greater than 100 µM; in the experiment with HCT-116 colon, greater than 100 µM; with KM12 colon, 39.2 µM; with MOLT-4 leukemia, greater than 100 µM; with OVCAR-3 ovarian, greater than 100 µM. For the same compound, the TGI in the experiment with SN12C renal is greater than 100 µM.

For `O=C(CNc1nncs1)NO`, the TGI with UACC-62 melanoma, in the experiment on SW-620 colon, in the experiment on HCT-116 colon, with KM12 colon, in the experiment with MOLT-4 leukemia and in the experiment on OVCAR-3 ovarian was greater than 100 µM each time. The same compound returned a TGI in the experiment on SN12C renal greater than 100 µM.

As to `CC1OC(OCC2OC(Oc3c(-c4ccc(O)cc4)oc4cc(O)cc(O)c4c3=O)C(OC3OCC(O)(CO)C3O)C(O)C2O)C(O)C(O)C1O` (configuration not stated), the TGI in the experiment with UACC-62 melanoma, with SW-620 colon, in the experiment with HCT-116 colon, with KM12 colon, in the experiment on MOLT-4 leukemia and in the experiment with OVCAR-3 ovarian was greater than 100 µM each time. The same compound showed a TGI in the experiment on SN12C renal greater than 100 µM.

In the case of `CC[C@H](C)N(CCN)C(=O)c1cc2ccccc2c(-c2ccccc2Cl)n1`, the TGI in the experiment on UACC-62 melanoma is 29.5 µM; in the experiment on SW-620 colon it was 30 µM; in the experiment on HCT-116 colon, 14.9 µM; with KM12 colon, 29.6 µM; in the experiment with MOLT-4 leukemia, 24.9 µM; in the experiment on OVCAR-3 ovarian, 34 µM. The compound further had a TGI with SN12C renal of 32.8 µM.

Regarding `COc1cc(OC)c([C@@H]2OC(=O)C3C2C(=O)O[C@H]3c2cc(OC)c(OC)cc2OC)cc1OC` (some centres not stated), the TGI with UACC-62 melanoma was greater than 100 µM; in the experiment with SW-620 colon, greater than 10 µM; in the experiment on HCT-116 colon it was greater than 100 µM; in the experiment with KM12 colon, greater than 100 µM; with MOLT-4 leukemia it was greater than 100 µM; with OVCAR-3 ovarian, greater than 100 µM. The same compound registered a TGI with SN12C renal greater than 100 µM.

For `N#Cc1cn(C2OC(CO)C(O)C2O)c2ncnc(N)c12` (configuration not stated), the GI50 is less than 0.0136 µM in the experiment on UACC-62 melanoma; less than 0.0145 µM in the experiment on SW-620 colon; 0.0264 µM and < 0.01 µM with HCT-116 colon; 0.045 µM and 0.0319 µM in the experiment with MOLT-4 leukemia; less than 0.0119 µM in the experiment on SN12C renal. Moreover, the TGI was 0.156 µM and 0.0603 µM and 0.115 µM in the experiment with UACC-62 melanoma; greater than 100 µM in the experiment on SW-620 colon; greater than 100 µM in the experiment with HCT-116 colon; greater than 100 µM with KM12 colon.

Turning to `CC1=C(C(=O)Nc2ccccc2C)C(c2ccccc2)C(C(=O)Nc2ccccc2C)=C(C)N1`, the TGI in the experiment on UACC-62 melanoma was greater than 100 µM; in the experiment on SW-620 colon, greater than 100 µM; in the experiment on HCT-116 colon, greater than 100 µM; in the experiment on KM12 colon, greater than 100 µM; in the experiment with MOLT-4 leukemia it was 53 µM; with OVCAR-3 ovarian, greater than 100 µM. Moreover, in the experiment with SN12C renal, the TGI is greater than 100 µM.

For the compound `Cc1cc2c(c(C#N)c1C)NC(=O)CCC2=O`, the TGI in the experiment with UACC-62 melanoma, in the experiment with SW-620 colon, in the experiment with HCT-116 colon, in the experiment on KM12 colon, in the experiment on MOLT-4 leukemia and in the experiment with OVCAR-3 ovarian was greater than 100 µM throughout. The TGI in the experiment with SN12C renal was greater than 100 µM.

For the compound `N#CCC(=O)Nc1cccc(C(F)(F)F)c1`, the TGI in the experiment with UACC-62 melanoma, in the experiment on SW-620 colon, with HCT-116 colon, with KM12 colon, in the experiment with MOLT-4 leukemia and in the experiment on OVCAR-3 ovarian was greater than 100 µM each time. The TGI with SN12C renal was greater than 100 µM.

In the case of `CCOC(=O)C(=O)Nc1nc2c(s1)C(=O)c1ccccc1C2=O`, the TGI was 34.4 µM with UACC-62 melanoma; 27.7 µM in the experiment on SW-620 colon; 27.7 µM in the experiment on HCT-116 colon; 30.6 µM in the experiment on KM12 colon; 18.9 µM in the experiment with MOLT-4 leukemia; 18.6 µM in the experiment on OVCAR-3 ovarian. Also, in the experiment with SN12C renal, the TGI is 30.1 µM.

Regarding `Cc1ccc(OCC(=O)N2N=C(c3ccccc3)CC2(O)c2ccccc2)cc1` (configuration not stated), the TGI in the experiment on UACC-62 melanoma, with SW-620 colon, with HCT-116 colon, with KM12 colon, in the experiment with MOLT-4 leukemia and in the experiment on OVCAR-3 ovarian was greater than 100 µM each time. In the experiment on SN12C renal, this compound gave a TGI of 40.3 µM.

With `CCc1cccc(C(C)C)c1NC(=O)C(=O)C(Cc1nc2ccccc2[nH]c1=O)C(=O)OC` (configuration not stated), the TGI in the experiment on UACC-62 melanoma, in the experiment with HCT-116 colon, with KM12 colon, in the experiment with MOLT-4 leukemia, in the experiment with OVCAR-3 ovarian and in the experiment on SN12C renal was greater than 100 µM throughout.

For `CNC(P(=O)([O-])[O-])P(=O)([O-])[O-].N.N.[Pt+2]`, the GI50 in the experiment with UACC-62 melanoma, in the experiment with SW-620 colon, in the experiment with HCT-116 colon, in the experiment with OVCAR-3 ovarian and with SN12C renal was greater than 100 µM throughout. In addition, the TGI in the experiment with UACC-62 melanoma, with SW-620 colon, in the experiment on HCT-116 colon, in the experiment on OVCAR-3 ovarian and with SN12C renal was greater than 100 µM throughout.

As for `Cn1c2c(c3ccccc31)CCN(CCCCN1CCc3c(n(C)c4ccccc34)C1=O)C2`, the TGI with UACC-62 melanoma, in the experiment on SW-620 colon, with HCT-116 colon, with MOLT-4 leukemia, with OVCAR-3 ovarian and with SN12C renal was greater than 100 µM in each case.

For the compound `Cc1cc(C)nc(NS(=O)(=O)c2ccc(Nc3c4ccccc4nc4c(C(=O)Nc5ccc(S(=O)(=O)N=C(N)N)cc5)ccc(Cl)c34)cc2)n1`, the TGI in the experiment on UACC-62 melanoma is 36.9 µM; in the experiment on HCT-116 colon it was 51.5 µM; with KM12 colon, greater than 100 µM; in the experiment on MOLT-4 leukemia, 64.8 µM; in the experiment on OVCAR-3 ovarian it was 37.5 µM; in the experiment with SN12C renal, 80.9 µM.

In the case of `CC1=C(C(=O)Nc2c(C)cccc2C)C(c2ccc3c(c2)OCO3)C(C(=O)Nc2c(C)cccc2C)=C(C)N1`, the TGI in the experiment on UACC-62 melanoma was determined as 10.9 µM; with SW-620 colon it was 36.5 µM; with HCT-116 colon, 27.3 µM; with KM12 colon it was 29.1 µM; in the experiment with MOLT-4 leukemia it was 61.5 µM; in the experiment on OVCAR-3 ovarian, 98.6 µM. In addition, the TGI in the experiment with SN12C renal stood at 32.7 µM.

With `O=C(O)CSc1n[nH]c(-c2ccc(O)cc2)n1`, the TGI with UACC-62 melanoma, in the experiment with SW-620 colon, in the experiment with HCT-116 colon, in the experiment on KM12 colon, in the experiment on MOLT-4 leukemia and in the experiment on OVCAR-3 ovarian was greater than 100 µM each time.

With `COC(=O)C1CC2(CC3=C1CCCC3)OCCO2` (configuration not stated), the TGI in the experiment on UACC-62 melanoma, with SW-620 colon, in the experiment with HCT-116 colon, in the experiment on KM12 colon, in the experiment with OVCAR-3 ovarian and in the experiment with SN12C renal was greater than 100 µM in each case.
